Values quoted from earlier work in paper PMC7493416 (ACS Sustainable Chemistry & Engineering, 2019).

What was measured:
[1] = general statement, no reference given

| Solubility in water [1] | Compound | Reproductive toxicity |
| --- | --- | --- |
|  | CN(C)C=O [DMF, dimethylformamide] | display reproductive toxicity |
|  | CN1CCCC1=O [NMP, N-methylpyrrolidone] | display reproductive toxicity |
| insoluble in water | O=C1CCCCCC1 [cycloheptanone] |  |
